Data as given in ChEMBL document CHEMBL1121594, “Adaptive least-squares method applied to structure--activity correlation of hypotensive N-alkyl-N''-cyano-N'-pyridylguanidines” (J Med Chem, 1980).

Each compound was assayed on Rattus norvegicus (assay: The hypotensive activity expressed as rating of therapeutic index (MED/LD50 <1/200).). Details: in vivo.
Format: organism-based

Row | SMILES | TI rating
1 | CCC(C)(C)NC(=NC#N)Nc1cccnc1 | 3
2 | CC(C)CC(C)(C)/N=C(\NC#N)Nc1cccnc1 | 3
3 | CC(C)C(/N=C(\NC#N)Nc1cccnc1)C(C)C | 3
4 | N#CN/C(=N\C12C[C@H]3C[C@@H](C1)C[C@@H](C2)C3)Nc1ccncc1 | 3
5 | CCC(C)(C)/N=C(\NC#N)Nc1ccncc1 | 3
6 | CC(C)(C)/N=C(\NC#N)Nc1cncc(Br)c1 | 3
7 | CC(C)(C)/N=C(/NC#N)Nc1cccnc1 | 3
8 | CC(/N=C(/NC#N)Nc1cccnc1)C(C)(C)C (stereo not given) | 3
9 | CC(C)(C)C/N=C(/NC#N)Nc1cccnc1 | 3
10 | CC(C)C(C)(C)/N=C(\NC#N)Nc1cccnc1 | 3
11 | CCC(CC)(CC)/N=C(\NC#N)Nc1cccnc1 | 3
12 | CCC(C)(CC)/N=C(\NC#N)Nc1cccnc1 | 3
13 | CC(C)/N=C(\NC#N)Nc1cccnc1 | 3
14 | CC(C)(C)/N=C(\NC#N)Nc1ccncc1 | 3
15 | CCCC(C)(C)/N=C(\NC#N)Nc1cccnc1 | 3
16 | CCC(C)(CC)/N=C(\NC#N)Nc1ccncc1 | 3
17 | CCC(CC)(CC)/N=C(\NC#N)Nc1ccncc1 | 3
18 | CC(C)(C)/N=C(\NC#N)Nc1cccnc1Cl | 3

What follows are compounds tested on Rattus norvegicus (assay: The hypotensive activity expressed as rating of therapeutic index (1/30> MED/LD50 >=1/200).). Details: in vivo.
Format: organism-based

Row | SMILES | TI rating
19 | CC(C)(C)C(C)(C)/N=C(\NC#N)Nc1ccncc1 | 2
20 | CCC(CC)/N=C(\NC#N)Nc1ccncc1 | 2
21 | CCC(/N=C(\NC#N)Nc1ccncc1)C(C)C (stereo not given) | 2
22 | CC(C)CC(C)(C)/N=C(\NC#N)Nc1ccncc1 | 2
23 | CC(/N=C(\NC#N)Nc1ccncc1)c1ccccc1 (stereo not given) | 2
24 | CC(C)C/N=C(\NC#N)Nc1cccnc1 | 2
25 | N#CN/C(=N\C1CCCC1)Nc1cccnc1 | 2
26 | N#CN/C(=N\Cc1ccco1)Nc1cccnc1 | 2
27 | N#CN/C(=N\Cc1ccccc1)Nc1cccnc1 | 2
28 | N#CN/C(=N\C1CCCCC1)Nc1cccnc1 | 2
29 | CCCC/N=C(\NC#N)Nc1cccnc1 | 2
30 | CC(C)C(C)(C)/N=C(\NC#N)Nc1ccncc1 | 2
31 | CCCCC/N=C(\NC#N)Nc1cccnc1 | 2
32 | CC(C)(C)C/N=C(\NC#N)Nc1ccncc1 | 2
33 | N#CN/C(=N\C(C1CC1)C1CC1)Nc1ccncc1 | 2
34 | CC(/N=C(\NC#N)Nc1ccncc1)C1CC1 (stereo not given) | 2
35 | CCC(C)/N=C(\NC#N)Nc1cccnc1 (stereo not given) | 2
36 | N#CN/C(=N\c1ccccc1)Nc1cccnc1 | 2
37 | N#CN/C(=N\c1cccnc1)N1CCCCC1 | 2
38 | N#CN/C(=N\Cc1ccccc1)Nc1ccncc1 | 2
39 | C=C(C)C/N=C(\NC#N)Nc1cccnc1 | 2
40 | N#CN/C(=N\C1CC1)Nc1cccnc1 | 2
41 | N#CN/C(=N\CCc1ccccc1)Nc1ccncc1 | 2
42 | CC(C)CC/N=C(\NC#N)Nc1cccnc1 | 2
43 | CCC/N=C(\NC#N)Nc1cccnc1 | 2

These compounds were tested on Rattus norvegicus (assay: The hypotensive activity expressed as rating of therapeutic index (MED/LD50 >=1/30).). Details: in vivo.
Format: organism-based

Row | SMILES | TI rating
44 | CC(C)(C)/N=C(\NC#N)Nc1ccc(Cl)nc1Cl | 1
45 | CC(C)CCC(C)/N=C(\NC#N)Nc1ccncc1 (stereo not given) | 1
46 | CC1(/N=C(\NC#N)Nc2cccnc2)CCC1 | 1
47 | CCOCC/N=C(\NC#N)Nc1cccnc1 | 1
48 | Cc1cc(C)nc(N/C(=N/C(C)(C)C)NC#N)c1 | 1
49 | CC(C)CC(C)/N=C(\NC#N)Nc1ccncc1 (stereo not given) | 1
50 | N#CNC(=N)Nc1cccnc1 | 1
51 | COc1ccc(/N=C(\NC#N)NC(C)(C)C)c(OC)n1 | 1
52 | CCC(C)(C)/N=C(\NC#N)Nc1c(C)cc(C)nc1C | 1
53 | CCN(CC)CC/N=C(\NC#N)Nc1cccnc1 | 1
54 | N#CN/C(=N\CCc1ccccc1)Nc1cccnc1 | 1
55 | N#CN/C(=N\CC1CCCO1)Nc1cccnc1 (stereo not given) | 1
56 | N#CN/C(=N\C1CCCCC1)Nc1ccccn1 | 1
57 | N#CN/C(=N\c1ccccc1)Nc1ccncc1 | 1
58 | CC(C)(C)CC(C)(C)/N=C(\NC#N)Nc1cccnc1 | 1
59 | CCCCC(CC)C/N=C(\NC#N)Nc1cccnc1 (stereo not given) | 1

Row | SMILES | TI rating
60 | N#CN/C(=N\C1CCCCC1)Nc1ccncc1 | 1
61 | CC(C)C(/N=C(\NC#N)Nc1ccncc1)C(C)C | 1
62 | CC(C)(NC(=NC#N)Nc1cccnc1)c1ccccc1 | 1
63 | CC(C)(C)/N=C(\NC#N)Nc1ccc(Cl)cn1 | 1
64 | CC(C)(C)/N=C(\NC#N)Nc1ccccn1 | 1
65 | N#CN/C(=N\C12C[C@H]3C[C@@H](C1)C[C@@H](C2)C3)Nc1cccnc1 | 1
66 | CC(C)(C)CC(C)(C)/N=C(\NC#N)Nc1ccncc1 | 1
67 | CCCCCCC/N=C(\NC#N)Nc1cccnc1 | 1
68 | N#CN/C(=N\C1CCCCCCC1)Nc1ccncc1 | 1
69 | CCC(CC)/N=C(\NC#N)Nc1cccnc1 | 1
70 | CCC(C)C(C)/N=C(\NC#N)Nc1ccncc1 (stereo not given) | 1
71 | CC(C)(C)C(C)(C)/N=C(\NC#N)Nc1cccnc1 | 1
72 | C/N=C(\NC#N)Nc1cccnc1 | 1
73 | Cc1cccc(C)c1/N=C(\NC#N)Nc1cccnc1 | 1
74 | COc1ccc(N/C(=N/C(C)(C)C)NC#N)cn1 | 1
75 | Cc1cc(C)c(/N=C(\NC#N)NC(C)(C)C)c(C)n1 | 1
